BindingDB's records for doi:10.1016/s0960-894x(02)00471-7 (Universita' Di Firenze, 2002)

Biological target: T1, Substance-K receptor (Homo sapiens, UniProt P21452)
T1 sequence (P21452 whole entry): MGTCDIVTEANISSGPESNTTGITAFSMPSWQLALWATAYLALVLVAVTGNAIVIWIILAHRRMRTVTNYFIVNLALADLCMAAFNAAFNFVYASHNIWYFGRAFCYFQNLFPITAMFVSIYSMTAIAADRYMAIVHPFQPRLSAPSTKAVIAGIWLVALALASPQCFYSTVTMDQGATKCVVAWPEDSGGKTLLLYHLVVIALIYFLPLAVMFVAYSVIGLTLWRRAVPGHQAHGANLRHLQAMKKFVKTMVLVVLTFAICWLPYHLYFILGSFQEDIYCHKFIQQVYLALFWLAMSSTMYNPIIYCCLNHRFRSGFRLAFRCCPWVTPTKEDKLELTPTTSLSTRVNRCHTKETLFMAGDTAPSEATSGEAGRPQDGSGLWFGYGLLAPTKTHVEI
Assay: ChEBML_209037
From the text: Displacement of [125I]NKA from human Tachykinin receptor 2 expressed in CHO cells

Structure (SMILES): CCOC(=O)C1C(C)OC2OC(COCc3ccccc3)C(OCc3ccccc3)C(=O)C2[S+]1[O-] (stereo unspecified) [7-Benzyloxy-6-benzyloxymethyl-8-hydroxy-3-methyl-1-oxo-6,7,8,8a-tetrahydro-1H,4aH-4,5-dioxa-1lambda*4*-thia-naphthalene-2-carboxylic acid ethyl ester]
- Ki: 0.79 µM
